Experimental data taken from ChEMBL document CHEMBL5154654, “Design, synthesis and biological evaluation of 7-((7H-pyrrolo[2,3-d]pyrimidin-4-yl)oxy)-2,3-dihydro-1H-inden-1-one derivatives as potent FAK inhibitors for the treatment of ovarian cancer” (Eur J Med Chem, 2022).
pIC50: −log10 of the molar value. Values after ≈ are worked out from the molar mass of the structure shown. Blank lines part the entries; values can stand above or below the compound they belong to. Active and inactive are the calls of the source. No cut-off for these calls is given here.

Experiments:
[1] = target: T1, Focal adhesion kinase 1 (Homo sapiens, UniProt Q05397); experiment: Inhibition of FAK (unknown origin) using Fluorescein-Poly GAT as substrate incubated for 30 mins and measured after 60 mins by Lanthascreen assay
Target sequence in this assay (Q05397 whole entry): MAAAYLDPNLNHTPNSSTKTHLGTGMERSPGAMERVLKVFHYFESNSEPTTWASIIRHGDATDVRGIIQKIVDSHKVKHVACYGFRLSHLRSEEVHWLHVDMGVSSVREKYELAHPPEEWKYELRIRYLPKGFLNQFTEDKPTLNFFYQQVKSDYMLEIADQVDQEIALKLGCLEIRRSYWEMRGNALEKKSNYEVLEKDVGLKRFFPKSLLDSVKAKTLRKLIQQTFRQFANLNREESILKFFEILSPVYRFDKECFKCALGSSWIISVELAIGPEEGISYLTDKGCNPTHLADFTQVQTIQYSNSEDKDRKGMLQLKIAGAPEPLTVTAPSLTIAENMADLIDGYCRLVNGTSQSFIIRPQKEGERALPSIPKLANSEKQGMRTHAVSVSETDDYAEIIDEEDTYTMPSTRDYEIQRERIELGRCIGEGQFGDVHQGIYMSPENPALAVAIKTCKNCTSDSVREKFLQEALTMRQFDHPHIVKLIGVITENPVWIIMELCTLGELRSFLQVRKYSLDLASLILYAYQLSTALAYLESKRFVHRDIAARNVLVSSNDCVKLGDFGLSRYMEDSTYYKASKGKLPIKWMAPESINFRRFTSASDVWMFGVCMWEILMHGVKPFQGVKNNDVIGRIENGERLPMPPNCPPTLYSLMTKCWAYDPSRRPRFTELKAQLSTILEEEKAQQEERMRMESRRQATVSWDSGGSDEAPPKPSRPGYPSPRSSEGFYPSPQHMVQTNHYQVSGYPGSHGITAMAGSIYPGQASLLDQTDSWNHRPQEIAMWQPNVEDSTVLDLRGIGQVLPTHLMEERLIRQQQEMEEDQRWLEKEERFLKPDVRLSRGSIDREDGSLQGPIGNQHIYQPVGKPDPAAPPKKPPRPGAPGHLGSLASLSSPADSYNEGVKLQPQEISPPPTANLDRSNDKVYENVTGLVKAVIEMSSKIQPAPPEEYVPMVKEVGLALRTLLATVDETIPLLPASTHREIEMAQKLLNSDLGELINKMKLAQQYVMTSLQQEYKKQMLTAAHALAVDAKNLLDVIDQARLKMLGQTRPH

[2] = Toxicity in female BALB/c nude mouse xenografted with human PA-1 cells assessed as kidney damage at 60 mg/kg, po administered once daily for 21 days; format: organism-based; conditions: in vivo, 504 h, time 21 day
[3] = Metabolic stability in human liver microsomes assessed as parent compound remaining incubated for 120 mins in presence of NADPH by LC-MS/MS analysis; format: ADME, Microsome; conditions: read-out: Stability
[4] = Toxicity in female BALB/c nude mouse xenografted with human PA-1 cells assessed as effect on body weight at 60 mg/kg, po administered once daily for 21 days; format: organism-based; conditions: in vivo, 504 h, time 21 day
[5] = tested on: PA-1; experiment: Inhibition of migration of human PA-1 cells at 2 uM measured after 24 hrs by Transwell assay; format: functional, cell-based
[6] = tested on: ES-2; experiment: Antimetastatic activity against human ES2 cells xenografted in mouse assessed as decrease in the number of peritoneal nodules at 60 mg/kg, po administered daily for 12 days; format: functional, organism-based; conditions: time 12.0 day
[7] = target: Tyrosine-protein kinase Fes/Fps (Homo sapiens) (UniProt P07332); experiment: Inhibition of Fes (unknown origin) at 1 uM incubated for 40 mins in presence of Mg/ATP mix relative to control
Tyrosine-protein kinase Fes/Fps (Homo sapiens), sequence (P07332 whole entry): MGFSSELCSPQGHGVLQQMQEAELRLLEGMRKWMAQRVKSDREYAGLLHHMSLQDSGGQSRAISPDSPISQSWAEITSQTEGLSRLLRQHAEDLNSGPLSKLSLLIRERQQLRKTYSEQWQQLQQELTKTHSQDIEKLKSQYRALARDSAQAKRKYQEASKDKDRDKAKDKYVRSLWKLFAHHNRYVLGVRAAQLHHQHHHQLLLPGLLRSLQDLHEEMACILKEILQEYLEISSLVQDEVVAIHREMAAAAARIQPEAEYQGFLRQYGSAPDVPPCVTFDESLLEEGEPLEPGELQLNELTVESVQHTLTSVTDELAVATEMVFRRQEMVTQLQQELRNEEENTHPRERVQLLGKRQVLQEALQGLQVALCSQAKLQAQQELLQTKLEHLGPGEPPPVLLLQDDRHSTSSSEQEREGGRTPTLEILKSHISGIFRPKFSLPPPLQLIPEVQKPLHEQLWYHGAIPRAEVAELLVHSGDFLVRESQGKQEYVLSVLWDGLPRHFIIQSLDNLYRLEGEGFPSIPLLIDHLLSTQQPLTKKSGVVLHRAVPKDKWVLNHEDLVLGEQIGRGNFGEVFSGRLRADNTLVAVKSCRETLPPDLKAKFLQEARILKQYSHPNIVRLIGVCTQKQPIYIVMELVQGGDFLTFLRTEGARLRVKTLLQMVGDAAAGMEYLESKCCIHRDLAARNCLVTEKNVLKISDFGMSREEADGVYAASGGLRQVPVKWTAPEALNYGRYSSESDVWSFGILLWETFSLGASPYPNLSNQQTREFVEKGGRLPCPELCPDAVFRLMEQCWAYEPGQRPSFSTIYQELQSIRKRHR

[8] = Half-life in Sprague-Dawley rat at 20 mg/kg, po; format: ADME, organism-based; conditions: in vivo
[9] = Aqueous solubility of compound; format: physicochemical; conditions: aqueous (not further specified)
[10] = Toxicity in female BALB/c nude mouse xenografted with human PA-1 cells assessed as lung damage at 60 mg/kg, po administered once daily for 21 days; format: organism-based; conditions: in vivo, 504 h, time 21 day
[11] = tested on: PA-1; experiment: Down-regulation of MMP-9 expression in human PA-1 cells at 2 uM measured after 0.5 to 6 hrs; format: functional, cell-based; conditions: time 0.5-6 hrs
[12] = Metabolic stability in human liver microsomes assessed as intrinsic clearance incubated for 120 mins in presence of NADPH by LC-MS/MS analysis; format: ADME, Microsome; conditions: read-out: CLH
[13] = target: ALK tyrosine kinase receptor (Homo sapiens) (UniProt Q9UM73); experiment: Inhibition of ALK (unknown origin) at 1 uM incubated for 40 mins in presence of Mg/ATP mix relative to control
ALK tyrosine kinase receptor (Homo sapiens), sequence (Q9UM73 19-1620 limits assumed): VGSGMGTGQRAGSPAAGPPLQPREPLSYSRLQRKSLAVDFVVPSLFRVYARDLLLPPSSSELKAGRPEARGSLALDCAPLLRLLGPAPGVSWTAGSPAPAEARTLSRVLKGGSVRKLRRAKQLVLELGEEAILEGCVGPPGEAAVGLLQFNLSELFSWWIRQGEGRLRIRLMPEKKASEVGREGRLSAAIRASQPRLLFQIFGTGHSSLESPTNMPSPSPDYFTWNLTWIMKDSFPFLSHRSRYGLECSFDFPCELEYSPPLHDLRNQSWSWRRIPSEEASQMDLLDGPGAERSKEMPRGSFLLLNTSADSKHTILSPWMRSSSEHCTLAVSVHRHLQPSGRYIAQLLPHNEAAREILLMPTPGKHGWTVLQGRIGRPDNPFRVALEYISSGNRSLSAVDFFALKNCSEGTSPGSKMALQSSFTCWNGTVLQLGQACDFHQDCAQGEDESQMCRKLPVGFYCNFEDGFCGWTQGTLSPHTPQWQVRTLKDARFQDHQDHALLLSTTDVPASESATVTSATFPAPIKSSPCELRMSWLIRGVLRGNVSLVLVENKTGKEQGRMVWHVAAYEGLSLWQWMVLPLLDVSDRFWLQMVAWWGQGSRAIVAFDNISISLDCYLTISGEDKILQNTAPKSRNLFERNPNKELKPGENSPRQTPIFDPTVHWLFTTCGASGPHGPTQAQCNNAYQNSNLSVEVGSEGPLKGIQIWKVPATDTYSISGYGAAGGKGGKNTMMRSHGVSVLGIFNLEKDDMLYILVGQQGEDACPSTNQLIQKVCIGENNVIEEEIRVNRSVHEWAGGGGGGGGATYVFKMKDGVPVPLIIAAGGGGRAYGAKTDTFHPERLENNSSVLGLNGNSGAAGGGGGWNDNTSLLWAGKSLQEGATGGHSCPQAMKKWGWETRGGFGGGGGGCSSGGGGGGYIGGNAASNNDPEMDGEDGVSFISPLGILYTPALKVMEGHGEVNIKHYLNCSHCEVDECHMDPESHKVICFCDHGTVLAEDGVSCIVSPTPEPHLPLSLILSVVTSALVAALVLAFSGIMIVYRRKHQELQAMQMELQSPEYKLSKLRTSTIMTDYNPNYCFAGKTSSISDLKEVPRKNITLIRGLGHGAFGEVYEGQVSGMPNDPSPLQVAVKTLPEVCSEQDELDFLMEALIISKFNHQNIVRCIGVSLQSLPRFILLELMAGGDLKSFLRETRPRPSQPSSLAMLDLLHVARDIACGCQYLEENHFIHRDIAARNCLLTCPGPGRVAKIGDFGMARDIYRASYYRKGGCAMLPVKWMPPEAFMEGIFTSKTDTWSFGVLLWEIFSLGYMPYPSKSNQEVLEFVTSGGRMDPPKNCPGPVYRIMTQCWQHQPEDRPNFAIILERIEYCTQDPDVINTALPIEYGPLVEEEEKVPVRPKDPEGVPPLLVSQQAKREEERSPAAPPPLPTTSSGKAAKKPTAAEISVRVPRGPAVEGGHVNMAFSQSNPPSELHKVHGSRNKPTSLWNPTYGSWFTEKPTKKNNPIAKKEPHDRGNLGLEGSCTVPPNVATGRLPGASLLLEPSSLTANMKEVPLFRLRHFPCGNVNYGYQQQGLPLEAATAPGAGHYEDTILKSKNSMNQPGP

[14] = Metabolic stability in human liver microsomes assessed as half-life incubated for 120 mins in presence of NADPH by LC-MS/MS analysis; format: ADME, Microsome
[15] = tested on: PA-1; experiment: Down-regulation of MMP-2 expression in human PA-1 cells at 2 uM measured after 0.5 to 6 hrs; format: functional, cell-based; conditions: time 0.5-6 hrs
[16] = Toxicity in female BALB/c nude mouse xenografted with human PA-1 cells assessed as heart damage at 60 mg/kg, po administered once daily for 21 days; format: organism-based; conditions: in vivo, 504 h, time 21 day
[17] = Toxicity in female BALB/c nude mouse xenografted with human PA-1 cells assessed as spleen damage at 60 mg/kg, po administered once daily for 21 days; format: organism-based; conditions: in vivo, 504 h, time 21 day
[18] = Toxicity in female BALB/c nude mouse xenografted with human PA-1 cells assessed as liver damage at 60 mg/kg, po administered once daily for 21 days; format: organism-based; conditions: in vivo, 504 h, time 21 day
[19] = AUC (total) in Sprague-Dawley rat at 20 mg/kg, po; format: ADME, organism-based; set-up: dose 20 mg/kg, route po; conditions: in vivo
[20] = tested on: PA-1; experiment: Antitumor activity against human PA-1 cells xenografted in female BALB/c nude mouse assessed tumor growth inhibition at 60 mg/kg, po administered once daily for 21 days; format: functional; conditions: PA-1, 504 h, time 21 day, read-out: TGI
[21] = tested on: PA-1; experiment: Inhibition of invasion of human PA-1 cells at 2 uM measured after 24 hrs by Transwell assay; format: functional, cell-based
[22] = Tmax in Sprague-Dawley rat at 20 mg/kg, po; format: ADME, organism-based; conditions: in vivo
[23] = target: Dual specificity protein kinase CLK4 (Homo sapiens) (UniProt Q9HAZ1); experiment: Inhibition of CLK4 (unknown origin) at 1 uM incubated for 40 mins in presence of Mg/ATP mix relative to control
Dual specificity protein kinase CLK4 (Homo sapiens), sequence (Q9HAZ1 whole entry, looked up): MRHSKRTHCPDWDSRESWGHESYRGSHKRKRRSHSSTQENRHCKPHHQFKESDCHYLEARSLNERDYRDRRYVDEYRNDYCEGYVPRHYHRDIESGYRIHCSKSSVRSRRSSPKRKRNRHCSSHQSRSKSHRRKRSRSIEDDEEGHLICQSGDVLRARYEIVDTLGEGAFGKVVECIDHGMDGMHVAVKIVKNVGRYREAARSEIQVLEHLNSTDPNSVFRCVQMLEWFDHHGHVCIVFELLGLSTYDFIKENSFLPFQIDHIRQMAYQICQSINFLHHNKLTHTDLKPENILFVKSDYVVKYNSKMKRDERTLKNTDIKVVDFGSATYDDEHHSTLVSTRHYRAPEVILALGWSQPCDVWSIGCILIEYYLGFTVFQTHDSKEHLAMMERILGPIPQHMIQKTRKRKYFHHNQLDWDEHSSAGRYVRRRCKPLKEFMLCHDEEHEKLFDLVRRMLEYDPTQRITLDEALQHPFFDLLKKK

[24] = Cmax in Sprague-Dawley rat at 20 mg/kg, po; format: ADME, organism-based; set-up: dose 20 mg/kg, route po; conditions: in vivo
[25] = target: T1, Focal adhesion kinase 1; conditions: PA-1, dose 10.0 nM
Description: Inhibition of FAK in human PA-1 cells assessed as suppression of FAK autophosphorylation at 10 nM and measured by Western blotting analysis

[26] = AUClast in Sprague-Dawley rat at 20 mg/kg, po; format: ADME, organism-based; set-up: time 0 - last, dose 20 mg/kg, route po; conditions: in vivo
[27] = target: Leucine-rich repeat serine/threonine-protein kinase 2 (Homo sapiens) (UniProt Q5S007); experiment: Inhibition of LRRK2 (unknown origin) at 1 uM incubated for 40 mins in presence of Mg/ATP mix relative to control
[28] = target: Serine/threonine-protein kinase 33 (Homo sapiens) (UniProt Q9BYT3); experiment: Inhibition of STK33 (unknown origin) at 1 uM incubated for 40 mins in presence of Mg/ATP mix relative to control
Serine/threonine-protein kinase 33 (Homo sapiens), sequence (Q9BYT3 whole entry, looked up): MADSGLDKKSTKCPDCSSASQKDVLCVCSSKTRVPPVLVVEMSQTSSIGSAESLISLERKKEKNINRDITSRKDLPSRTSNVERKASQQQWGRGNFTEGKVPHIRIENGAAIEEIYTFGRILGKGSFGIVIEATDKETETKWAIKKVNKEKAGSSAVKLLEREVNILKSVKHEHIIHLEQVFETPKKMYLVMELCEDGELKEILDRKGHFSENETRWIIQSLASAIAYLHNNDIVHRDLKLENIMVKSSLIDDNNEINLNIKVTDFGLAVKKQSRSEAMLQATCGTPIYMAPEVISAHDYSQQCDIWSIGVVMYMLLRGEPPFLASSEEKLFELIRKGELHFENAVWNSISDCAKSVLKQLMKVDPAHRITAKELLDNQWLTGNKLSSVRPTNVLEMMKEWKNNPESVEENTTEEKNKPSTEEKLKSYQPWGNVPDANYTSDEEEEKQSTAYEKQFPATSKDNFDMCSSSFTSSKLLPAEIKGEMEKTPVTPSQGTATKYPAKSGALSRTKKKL

[29] = target: Dual specificity protein kinase CLK1 (Homo sapiens) (UniProt P49759); experiment: Inhibition of CLK1 (unknown origin) at 1 uM incubated for 40 mins in presence of Mg/ATP mix relative to control
Dual specificity protein kinase CLK1 (Homo sapiens), sequence (P49759 whole entry, looked up): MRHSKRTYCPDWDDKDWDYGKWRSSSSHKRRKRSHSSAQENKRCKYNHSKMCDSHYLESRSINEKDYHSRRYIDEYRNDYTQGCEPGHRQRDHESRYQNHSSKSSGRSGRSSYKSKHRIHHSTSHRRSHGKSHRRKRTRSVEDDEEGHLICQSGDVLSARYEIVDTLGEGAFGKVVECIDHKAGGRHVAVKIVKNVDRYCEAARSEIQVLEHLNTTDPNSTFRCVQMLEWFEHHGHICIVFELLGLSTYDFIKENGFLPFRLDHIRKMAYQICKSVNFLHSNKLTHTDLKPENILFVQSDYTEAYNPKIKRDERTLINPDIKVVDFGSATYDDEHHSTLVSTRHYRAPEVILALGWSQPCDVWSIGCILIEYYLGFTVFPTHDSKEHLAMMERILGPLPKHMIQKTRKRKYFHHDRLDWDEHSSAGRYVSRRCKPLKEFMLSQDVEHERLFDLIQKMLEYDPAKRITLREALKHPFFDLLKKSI

[30] = species: Homo sapiens; experiment: Inhibition of MEK (unknown origin) at 1 uM incubated for 40 mins in presence of Mg/ATP mix relative to control
[31] = target: Receptor-type tyrosine-protein kinase FLT3 (Homo sapiens) (UniProt P36888); experiment: Inhibition of FLT3 (unknown origin) at 1 uM incubated for 40 mins in presence of Mg/ATP mix relative to control

SMILES: COc1cc(N2CCC(N3CCN(C)CC3)CC2)ccc1Nc1nc(Oc2cccc3c2C(=O)CC3)c2sccc2n1
- pIC50 [1]: 7.56

SMILES: COc1cc(N2CCN(C)CC2)ccc1Nc1nc(Oc2cccc3c2C(=O)CC3)c2sccc2n1
- pIC50 [1]: 7.38

SMILES: COc1cc(N2CCOCC2)ccc1Nc1nc(Oc2cccc3c2C(=O)CC3)c2ccccc2n1
- pIC50 [1]: 6.18

SMILES: O=C1CCc2cccc(Oc3nc(Nc4ccc(N5CCOCC5)cc4)nc4cc[nH]c34)c21
- pIC50 [1]: < 6.00

SMILES: COc1cc(C(=O)NC2CCNCC2)ccc1Nc1nc(Oc2cccc3c2C(=O)CC3)c2cc[nH]c2n1
- Activity [2]: Non-Toxic
- remaining at 2 h [3]: 48.6%
- Activity [4]: Non-Toxic
- inhibition [5]: Active
- Activity [6]: Active
- inhibition [7]: 96%
- half-life [8]: 4.08 h
- solubility [9]: 456 µg/mL (≈ 890 µM)
- Activity [10]: Non-Toxic
- Activity [11]: Active
- CLint scaled [12]: 7.7 mL/min/kg
- inhibition [13]: 87%
- half-life [14]: 1.88 h
- Activity [15]: Active
- Activity [16]: Non-Toxic
- pIC50 [1]: 8.72
- Activity [17]: Non-Toxic
- Activity [18]: Non-Toxic
- AUC [19]: 78.8 ng·h/mL
- inhibition in vivo at 60 mg/kg [20]: 72.5%
- inhibition [21]: Active
- Tmax [22]: 0.28 h
- inhibition [23]: 97%
- Cmax [24]: 21.7 ng/mL
- inhibition [25]: Active
- AUC(0-t) [26]: 59.6 ng·h/mL
- inhibition [27]: 100%
- inhibition [28]: 92%
- inhibition [29]: 92%

SMILES: COc1cc(N2CCN(C)CC2)ccc1Nc1nc(Oc2cccc3c2C(=O)CC3)c2ccccc2n1
- pIC50 [1]: 6.64

SMILES: COc1cc(N2CCN(C)CC2)ccc1Nc1nc(Oc2cccc3c2C(=O)CC3)c2ccsc2n1
- pIC50 [1]: < 6.00

SMILES: COc1cc(N2CCC(N3CCN(C)CC3)CC2)ccc1Nc1nc(-n2cnc3ccccc32)c2cc[nH]c2n1
- pIC50 [1]: 7.56

SMILES: CN1CCN(C2CCN(c3ccc(Nc4nc(Oc5cccc6c5C(=O)CC6)c5cc[nH]c5n4)cc3)CC2)CC1
- remaining at 2 h [3]: 42.2%
- solubility [9]: 39.4 µg/mL (≈ 73.3 µM)
- CLint scaled [12]: 93 mL/min/kg
- half-life [14]: 1.55 h
- pIC50 [1]: 8.54

SMILES: O=C1CCc2cccc(Oc3nc(Nc4ccc(N5CCOCC5)cc4)nc4ccsc34)c21
- pIC50 [1]: 6.61

SMILES: CN1CCN(c2ccc(Nc3nc(Oc4cccc5c4C(=O)CC5)c4cc[nH]c4n3)c(C(F)(F)F)c2)CC1
- pIC50 [1]: 7.00

SMILES: COc1cc(N2CCN(C)CC2)ccc1Nc1nc(Oc2ccc(C)c3c2C(=O)CC3)c2cc[nH]c2n1
- remaining at 2 h [3]: 42.2%
- solubility [9]: 7.9 µg/mL (≈ 15.8 µM)
- CLint scaled [12]: 8.8 mL/min/kg
- half-life [14]: 1.65 h
- pIC50 [1]: 8.69

SMILES: COc1cc(N2C[C@@H](C)O[C@@H](C)C2)ccc1Nc1nc(Oc2cccc3c2C(=O)CC3)c2cc[nH]c2n1
- pIC50 [1]: 7.92

SMILES: CN1CCN(c2ccc(Nc3nc(Oc4cccc5c4C(=O)CC5)c4ccsc4n3)cc2)CC1
- pIC50 [1]: < 6.00

SMILES: COc1cc(N2CCC(N3CCN(C)CC3)CC2)ccc1Nc1nc(-c2cnn(C)c2)c2cc[nH]c2n1
- pIC50 [1]: 6.76

The remaining lines, values ahead:

- remaining at 2 h [3]: 19.8%
- solubility [9]: 9.3 µg/mL (≈ 20.3 µM)
- CLint scaled [12]: 16.7 mL/min/kg
- half-life [14]: 0.867 h
- pIC50 [1]: 8.41
SMILES: Cc1cc(Nc2nc(Oc3cccc4c3C(=O)CC4)c3cc[nH]c3n2)ccc1OCCN(C)C

- pIC50 [1]: 8.15
SMILES: Cc1cc(N2CCN(C)CC2)ccc1Nc1nc(Oc2cccc3c2C(=O)CC3)c2cc[nH]c2n1

- inhibition [30]: > 90%
- inhibition [31]: > 90%
SMILES: CNC(=O)c1ccc(Nc2ncc(C(F)(F)F)c(NCc3nccnc3N(C)S(C)(=O)=O)n2)cc1

- pIC50 [1]: 6.78
SMILES: COc1cc(N2CCN(C)CC2)ccc1Nc1nc(-n2ccc3ccccc32)c2cc[nH]c2n1

- pIC50 [1]: 8.20
SMILES: Cc1cc(Nc2nc(Oc3cccc4c3C(=O)CC4)c3cc[nH]c3n2)ccc1N1CCN(C2COC2)CC1

- pIC50 [1]: 6.95
SMILES: COc1cc(N2CCOCC2)ccc1Nc1nc(Oc2cccc3c2C(=O)CC3)c2sccc2n1

- pIC50 [1]: 8.04
SMILES: COc1nc(N2CCN(C)CC2)ccc1Nc1nc(Oc2cccc3c2C(=O)CC3)c2cc[nH]c2n1

- pIC50 [1]: 6.48
SMILES: COc1cc(N2CCN(C)CC2)ccc1Nc1nc(-c2cnn(C)c2)c2cc[nH]c2n1

- pIC50 [1]: 7.43
SMILES: COc1cc(N2CCN(C)CC2)ccc1Nc1nc(-n2cnc3ccccc32)c2cc[nH]c2n1

- pIC50 [1]: 6.61
SMILES: COc1cc(N2CCC(N3CCN(C)CC3)CC2)ccc1Nc1nc(Oc2cccc3c2C(=O)CC3)c2ccccc2n1
